Format in all cases: cell-based
The test system of assay [1] is Streptococcus pneumoniae DSM 11865 (penicillin-resistant). As to conditions: DSM 11865, 2 h. The method in brief:
(§1)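 Broth microdilution MIC per NCCLS M7-A3 in Mueller Hinton Broth with chemically synthesized peptides. MIC is the lowest peptide concentration giving complete growth inhibition after 18±2 h incubation, reported in μg/ml.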

In assay [2] the test system is Candida albicans ATCC 10231. Conditions: for minimum inhibition concentration: ATCC 10231, 2 h.
Assay [3] relates to Staphylococcus aureus ATCC 25923. As to conditions: ATCC 25923, 2 h. The method in brief: as §1
In assay [4] the test system is Klebsiella pneumoniae ATCC 10031. Conditions: ATCC 10031, 2 h. In outline:
as §1

Assay [5] concerns Escherichia coli ATCC 25922. As to conditions: ATCC 25922, 2 h. The method in brief: as §1
Assay [6] deals with Enterococcus faecalis ATCC 51299 (vancomycin-resistant). As to conditions: ATCC 51299, 2 h. In outline: as §1
The subject of assay [7] is Pseudomonas aeruginosa ATCC 9027. Conditions: Mueller Hinton Broth; complete growth inhibition not achieved.
The test system of assay [8] is Streptococcus pneumoniae DSM 11865 (penicillin-resistant). Conditions: Tryptic Soy Broth (3 g/l) with 150 mM sodium chloride; complete growth inhibition not achieved. As for the experimental part:
(§2) The antibiotic activity of bolisin analogues was examined by determining the minimum inhibition concentration. The minimum inhibition concentration of an analogue designates the lowest peptide concentration which is required to inhibit the growth of microorganisms completely after an incubation time of 18±2 h. This method allows to obtain a quantitative result about the antimicrobial potency of the peptides. These examinations were performed by analogy with the recommendations (M7-A3) edited by the NCCLS (National Committee for Clinical Laboratory Standards) by applying a dilution test in a liquid medium using chemically synthesized peptides (peptide sequences according to claims 1 to 3). Mueller Hinton Broth was used as the test medium according to the NCCLS recommendations unless indicated otherwise. […] The minimum inhibition concentrations are stated in [μg/ml].
(§3) A complete growth inhibition could not be achieved in this case. For determining the minimum inhibition concentration, the following microorganisms were used: • 1. Staphylococcus aureus ATCC 25923 • 2. Enterococcus faecalis ATCC 51299 (vancomycin-resistant) • 3. Streptococcus pneumoniae DSM 11865 (penicillin-resistant) • 4. Escherichia coli ATCC 25922 • 5. Pseudomonas aeruginosa ATCC 9027 • 6. Klebsiella pneumoniae ATCC 10031 • 7. Candida albicans ATCC 10231
(§4) Also for these examinations, the minimum inhibition concentration of the peptides against Gram-positive and Gram-negative microorganisms (microorganisms 1-6) was determined. Tryptic Soy Broth (3 g/l) with an addition of salt in physiological concentration (150 mM sodium chloride) was used as the test medium.
(§5) A complete growth inhibition could not be achieved in this case.

Assay [9] has as its system Staphylococcus aureus ATCC 25923. As to conditions: Tryptic Soy Broth (3 g/l) with 150 mM sodium chloride; complete growth inhibition not achieved. How it is done: as §2, §3, §4, §5
In assay [10] the test system is Klebsiella pneumoniae ATCC 10031. As to conditions: Tryptic Soy Broth (3 g/l) with 150 mM sodium chloride; complete growth inhibition not achieved. How it is done:
as §2, §3, §4, §5

In assay [11] the test system is Enterococcus faecalis ATCC 51299 (vancomycin-resistant). Conditions: Tryptic Soy Broth (3 g/l) with 150 mM sodium chloride; complete growth inhibition not achieved. How it is done:
as §2, §3, §4, §5

The subject of assay [12] is Pseudomonas aeruginosa ATCC 9027. Conditions: ATCC 9027, 2 h.

Ends that are not written are not given here. A value given as a limit tells only on which side of the number the result lay.

For “KYIVYKIRSAWKRRKALK-OH [BOL-86, KYIVYKIRSAWKRRKALK]”, the minimum inhibition concentration in assay [1] stood at 150 µg/mL; in assay [2], 18.75 µg/mL; in assay [3], 75 µg/mL; in assay [4], 50 µg/mL; in assay [5] it was 150 µg/mL; in [6], 200 µg/mL. In addition, the results for the “peptide concentration giving 75% inhibition of growth (value in parentheses)” value in assay [7], in [8] and in assay [9] were “(18.75) μg/ml”, “(300) μg/ml” and “(300) μg/ml”, respectively.

As for “YIVWKIRSARKRWKALK-OH [BOL-81, YIVWKIRSARKRWKALK]”, the minimum inhibition concentration in assay [1] turned out to be 75 µg/mL; in assay [2], 75 µg/mL; in assay [3], 300 µg/mL; in assay [4], 25 µg/mL; in [5], 300 µg/mL; in assay [6], 150 µg/mL. Further, the “peptide concentration giving 75% inhibition of growth (value in parentheses)” value in [7] is “(18.75) μg/ml”; in assay [8], “(75) μg/ml”; in [9], “(300) μg/ml”.

Take “YIVYKIRRARKRRKALK-OH [BOL-52, YIVYKIRRARKRRKALK]”: the minimum inhibition concentration in assay [1] is 200 µg/mL; in [3], 300 µg/mL; in assay [4], 75 µg/mL; in assay [5], over 300 µg/mL; in assay [6], 200 µg/mL. Moreover, the “peptide concentration giving 75% inhibition of growth (value in parentheses)” value in [2] (Mueller Hinton Broth, complete growth inhibition not achieved) is on record as “(37.5) μg/ml”; in assay [7], “(37.5) μg/ml”; in assay [10], “(300) μg/ml”.

Consider “YIVYKIRRAWKRRKALK-OH [BOL-54, YIVYKIRRAWKRRKALK]”, for which the minimum inhibition concentration was determined as 75 µg/mL in assay [1]; 18.75 µg/mL in assay [2]; 200 µg/mL in [3]; 18.75 µg/mL in assay [4]; 100 µg/mL in assay [5]; 100 µg/mL in assay [6]. For the same substance, the results for the “peptide concentration giving 75% inhibition of growth (value in parentheses)” value in assay [7] and in assay [10] were “(25) μg/ml” and “(200) μg/ml”, respectively.

Regarding “YIVYKIRSARKRWK-OH [BOL-71, YIVYKIRSARKRWK]”, the minimum inhibition concentration in [1] is 300 µg/mL; in [2] it was 300 µg/mL; in [3] it was 200 µg/mL; in assay [4], 300 µg/mL; in [5] it was 300 µg/mL; in assay [6] it was 200 µg/mL. Further, the “peptide concentration giving 75% inhibition of growth (value in parentheses)” value was “(200) μg/ml” in assay [7] and “(300) μg/ml” in [11].

With “YIVYKIRSAWKRRKALK-OH [BOL-44, YIVYKIRSAWKRRKALK]”, the minimum inhibition concentration is 200 µg/mL in [1]; 37.5 µg/mL in [2]; 150 µg/mL in [3]; 75 µg/mL in assay [4]; 200 µg/mL in assay [5]; over 300 µg/mL in assay [6]. Also, the “peptide concentration giving 75% inhibition of growth (value in parentheses)” value was “(75) μg/ml” in assay [7] and “(300) μg/ml” in assay [11].

For the substance “YIVYKIRWAWKRKKALK-OH [BOL-61, YIVYKIRWAWKRKKALK]”, the minimum inhibition concentration in assay [1] came out at 25 µg/mL; in assay [2], 9.375 µg/mL; in [3] it was 37.5 µg/mL; in assay [4], 18.75 µg/mL; in assay [5], 25 µg/mL; in assay [6], 25 µg/mL. In assay [12], this substance registered a minimum inhibition concentration of 300 µg/mL. The “peptide concentration giving 75% inhibition of growth (value in parentheses)” value in [7] amounted to 75 µg/mL.

Regarding “YIVYKIRWAWKRRKALK-OH [BOL-48, YIVYKIRWAWKRRKALK]”, the minimum inhibition concentration in assay [1] is 9.375 µg/mL; in [2], 9.375 µg/mL; in assay [3], 9.375 µg/mL; in assay [4] it was 4.7 µg/mL; in [5] it was 18.75 µg/mL; in assay [6], 12.5 µg/mL. Further, the minimum inhibition concentration in [12] was determined as 200 µg/mL. Besides, in assay [7], the “peptide concentration giving 75% inhibition of growth (value in parentheses)” value came to 6.5 µg/mL.

The values above are taken from US7449545B2, “Antimicrobial bolisin peptides” (IPF Pharmaceuticals GmbH, priority 2001, dated 2008).
